The values below come from paper PMC12466513, “Okanin Attenuates Mitochondrial Dysfunction and Apoptosis in UVA-Induced HaCaT Cells by Mitophagy Through SIRT3 Pathway” (Antioxidants, 2025).

In assay [1] the target is T1, SIRT3 (Homo sapiens, UniProt Q9NTG7).
T1 sequence (Q9NTG7 102-399): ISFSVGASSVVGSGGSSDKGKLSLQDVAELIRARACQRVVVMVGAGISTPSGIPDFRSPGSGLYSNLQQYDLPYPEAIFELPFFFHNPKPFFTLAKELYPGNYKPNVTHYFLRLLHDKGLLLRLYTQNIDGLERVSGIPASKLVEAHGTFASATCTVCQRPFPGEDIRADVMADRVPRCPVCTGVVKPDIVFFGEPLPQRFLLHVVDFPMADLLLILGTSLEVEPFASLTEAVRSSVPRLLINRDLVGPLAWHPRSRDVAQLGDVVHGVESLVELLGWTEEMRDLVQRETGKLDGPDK
Kind of assay: surface plasmon resonance. The assay is classed as binding. Also on record: SIRT3 protein used for SPR; PDB 4JT8 was only the docking model.

Assay [2] concerns the target T1, SIRT3. The experiment in a line: DARTS (pronase digestion, blot). Conditions: protein lysate. Type of assay: biochemical. Also on record: detected by blot.

As for `O=C(/C=C/c1ccc(O)c(O)c1)c1ccc(O)c(O)c1O` [okanin], the affinity on SIRT3 [1], expressed as Kd, was 4.98 µM. Moreover, the DARTS protection entry at SIRT3 [2] was “okanin treatment significantly enhanced SIRT3 resistance to pronase digestion in protein lysates”.
